Reference: patent publication US9241928B2, “Antimicrobial compounds” (The General Hospital Corporation, priority 2009, dated 2016)
Values after ≈ are worked out from the molar mass of the structure shown.

Tests used:
E. faecalis MMH594 = assay: MIC assay, E. faecalis in vitro; format: cell-based; conditions: Enterococcus faecalis; E. faecalis MMH594 in 20% BHI, 80% M9, 37° C., 15 hours, scored by eye
Method: A culture of E. faecalis MMH594 was grown overnight in BHI broth to stationary phase at 37° C. with aeration. The culture was diluted to an approximate density of […] in worm infection media (20% BHI, 80% M9 buffer). 12.5 μl of the bacterial culture dilution was inoculated into 384-well plates containing 12.5 μl of 2-fold serial dilutions of a test compound. […] Plates were incubated at 37° C. for 15 hours and scored by eye for bacterial growth.

[1] = system: C. elegans infected with E. faecalis; assay: Dose response time courses in the C. elegans-E. faecalis infection assay; format: in vivo, Caenorhabditis elegans; conditions: Effective Concentration: survival significantly different from mock-treated, p-value <0.05, logrank; read-out: EC
Method: (§1) glp-4(bn2); sek-1 (km4) mutant worms were grown to gravid adult stage. 1,000 worms at the L1 stage were grown for 5.2 days at 15° C. on 9-cm plates of SK agar media spread with a lawn of E. coli strain HB101. Embryos from the gravid adults were isolated by a previously described hypochlorite method (see Tan et al., (1999) Proc. Natl. Acad. Sci. USA 96, 715-720) and hatched at 15° C. for 2 days. Approximately 4,500 of the Ll hatchlings were grown on each 9-cm plate of SK-NS agar (SK media with 62.5 U/ml nystatin and 100 μg/ml streptomycin) and with lawns of E. coli HB101. These worms were grown at 25° C. for 52 hours to generate sterile, young adults.
(§2) A culture of E. faecalis MMH594 was grown in BHI broth (BD Difco) with 80 μg/ml kanamycin at 37° C. for 6 hours and 100 μl of the culture were spread onto each 9-cm plate of BHI agar containing 80 μg/mlkanamycin. Lawns of E. faecalis were grown at 25° C. for 16 hours and transferred to 15° C. for 8 hours.
(§3) Sterile adult worms were resuspended in M9 buffer and washed twice with M9 in a 1:10 ratio to remove E. coli. 8,000 worms were pipetted onto each lawn of E. faecalis and incubated 15 hours at 15° C. After infection, the worms were resuspended in M9 and used as described below. 384-well plates (Corning #3712) were filled with 55 μl media (see below) using a Thermo Scientific MULTIDROP Combi reagent dispenser. 0.3 μl of a candidate compound in DSMO were pin transferred into each well using a CyBio CYBI-Well vario transfer system. The plates were agitated using an Eppendorf MIXMATE at 1,800 rpm for 15 seconds. Using the Union Biometrica Complex Object Parametric Analyzer and Sorter (COPAS) BIOSORT worm sorter according to manufacturer's protocols, 15 of the infected worms were transferred to each well in a total volume of approximately 15 μl. Total volume per well is 70 μl/well with a final composition of the media being 20% BHI, […], 80 μg/ml kanamycin, 62.5 U/ml nystatin, 1% DMSO, and 19% sheath solution (Union Biometrica Part #300-5101-000). Plates were vortexed for 5 seconds, centrifuged at 1000×g for 10 seconds, and sealed with gas permeable membranes (BREATHEASY Diversified). Plates were placed in a single layer on the top shelves in a 26.3° C. incubator at 85% relative humidity (RH) and incubated without agitation for 5 days.
The dose dependence of certain antimicrobial compounds identified by the assay above were studied. These compounds were purchased in a larger amount from commercial sources. For each of these compounds, an infection assay was performed essentially as described above at different concentrations except that SYTOX staining was not used. Instead, bright-field images of the wells were acquired at daily time points and scored manually for worm survival by analyzing worm body positioning. […] All compounds used in this assays were confirmed for their identity and purity by liquid chromatography/mass spectrometry.

[2] = system: E. faecalis strain MMH594; assay: Antimicrobial (bacterial killing) assay; format: cell-based, Enterococcus faecalis; conditions: mM concentrations, 1 to 30 minutes, room temperature
Method: Compounds 6, 7, 15 were purchased from TimTec and ChemDiv, dissolved in DMSO at a concentration of 5 or 10 mg/ml, and further diluted in DMSO as indicated. E. faecalis strain MMH594 was grown overnight with aeration at 37° C. in Bacto brain heart infusion (BHI) broth (Becton Dickinson), transferred to ice, and washed in phosphate-buffered saline (PBS; pH 7.2). Equal volumes of a dissolved compound and bacteria were mixed, incubated at room temperature for 1 to 30 minutes, ten-fold serially diluted in PBS, and plated in […] droplets on BHI agar plates. Plates were incubated at room temperature until colonies were visible.

[3] = system: MRSA infection in Caenorhabditis elegans; assay: MRSA infection assay in C. elegans (liquid); format: in vivo; conditions: 5 days
Text: To screen/test candidate compounds for their efficacy against Methicillin-resistant Staphylococcus aureus (MRSA) using Caenorhabditis elegans (C. elegans), a liquid high throughput screening assay was developed. In contrast to the Enterococcus faecalis infection assay, where worms are pre-infected with E. faecalis on agar prior to the start of the screening assay and then infected worms are transferred to microtiter plates using the COPAS BioSort robot, the infection of worms with MRSA occurred directly in the liquid medium. This liquid infection protocol with MRSA was developed because the COPAS BioSort, the large particle sorter used to dispense worms into multiwell plates, is a pressurized system that can generate aerosols. Because MRSA is a potentially dangerous pathogen for immune competent individuals, sorting MRSA-infected worms in the COPAS BioSort was deemed to be potentially hazardous.
The MRSA infection assay was carried out by incubating C. elegans with three MRSA strains (i.e., USA100, USA400 and MW2) in 96 or 384-well microtiter plates and assessing whether worms were live or dead after a 5 day incubation.
The MRSA infection assay was performed as follows: Worms were grown on agar using non-pathogenic E. coli as a food source until they reached the L4/young adult stage. A small volume of M9 buffer was added to the agar plates to float worms gently off the food source. The worms were then transferred into a large conical tube and washed 2 times by allowing worms to settle, aspirating the supernatant and adding fresh M9 buffer. 15 worms were then transferred using a COPAS BioSort large particle sorter into a 96-well plate containing […] of M9. […] After the worms were stained for 18 hours, images of the plates were acquired in bright field and red fluorescence channels using a Molecular Devices Discovery-1 or ImageXpress automated microscopy system. The total number of worms was counted in the bright field image and the number of dead animals are determined by positive SYTOX staining. […]

[4] = system: C. elegans infected with E. faecalis; assay: Automated infection assay for primary compound screening (SYTOX staining, CELLPROFILER); format: in vivo, Caenorhabditis elegans
Method: In general, the area of each well that is SYTOX-positive in the fluorescence image is measured and normalized by the total area occupied by all worms, which is quantified in the bright field image. This typically requires illumination correction to flatten lighting abnormalities, adaptive thresholding, and size- and contrast-based filters and masks to exclude debris and other artifacts. By calculating the ratio of the fluorescent area (which corresponds to the area occupied by dead worms) to the total area occupied by all worms, one can accurately determine the number of dead worms in each well. […] In a well where the worms are rescued by ampicillin treatment, 3 of the 14 worms were dead based on manual scoring. The ratio of the fluorescent area to the area occupied by all worms obtained by the CELLPROFILER analysis is correspondingly low at 0.12.
as §1, §2, §3
After 5 days, the bacteria and liquid media in the assay plates were removed as described below. First, the bacteria were re-suspended by shaking on the MIXMATE for 15 seconds at 1,800 rpm, the sealing membrane was removed, and the worms were allowed to settle to the bottom of the wells for 3 minutes. […]

| SMILES | MIC (E. faecalis MMH594) [µg/mL] | minimal effective concentration [1] [µg/mL] | bactericidal activity (FIGS. 7A and 7B) [2] | other results |
| --- | --- | --- | --- | --- |
| CC(C)(C)C1=NN(c2nc3ccc(Cl)cc3s2)C(=O)C1 [Compound 4] | 1.56 (≈ 5.07 µM) | 0.39 |  |  |
| Oc1c(C(Nc2ccccn2)c2cccc(F)c2)cc(Cl)c2cccnc12 (stereo not shown) [Compound 2] | 25 (≈ 65.8 µM) | 1.56 |  |  |
| CCC(=O)O [propionic acid, reference compound] |  |  | did not show any bactericidal activity |  |
| CSc1ccc(-c2cccs2)nn1 [Compound 8] | > 100 | 3.13 |  |  |
| Cc1c(O)ccc(/C=N/Nc2nc(-c3ccc(Br)cc3)nc3ccccc23)c1O [Compound 9] | > 100 | 3.13 |  | survival of MRSA-infected worms (FIG. 4) ([3]; 25 and 50 μg/ml): resulted in survival of MRSA-infected worms |
| Oc1c(C(Nc2ccccn2)c2ccccn2)cc(Cl)c2cccnc12 (stereo not shown) [Compound 3] | 12.5 (≈ 34.5 µM) | 3.13 |  | survival of MRSA-infected worms (FIG. 4) ([3]; 6.25 and 12.5 μg/ml): resulted in survival of MRSA-infected worms |
| CC1(C)S[C@@H]2[C@H](NC(=O)[C@H](N)c3ccccc3)C(=O)N2[C@H]1C(=O)O [ampicillin] |  |  |  | z-score, screen average ([4]; ampicillin-treated wells, 21 μg/ml): −8.70; dead worms based on manual scoring ([4]; of 14 worms in the well, ampicillin treatment): 3; ratio of the fluorescent area to the area occupied by all worms (CELLPROFILER) ([4]; well where worms are rescued by ampicillin treatment): 0.12 |
| CC(=O)O [acetic acid, reference compound] |  |  | did not show any bactericidal activity |  |
| Oc1c(C(Nc2ccccn2)c2ccccc2F)cc(Cl)c2cccnc12 (stereo not shown) [Compound 1] | 12.5 (≈ 32.9 µM) | 0.78 |  |  |
| O=C(CCSCc1ccc(Cl)cc1)N1CCN(c2ccccc2)CC1 [Compound 7] | > 100 | 25 | did not show any bactericidal activity |  |
